# Experiment: in vitro
# Details: human, hek293t cells
row,SMILES,"viability at 48 h, 25 µM"
1,"Cc1cc(C=C(C#N)C(=O)Nc2nccs2)cc(C)c1O [9-D13, 2-cyano-3-(4-hydroxy-3,5-dimethylphenyl)-N-(1,3-thiazol-2-yl)prop-2-enamide]",106%
2,"CNC(=O)C(C#N)=Cc1cccc(C)c1C [9-D14, 2-cyano-3-(2,3-dimethylphenyl)-N-methylprop-2-enamide]",112%
3,"CC(NC(=O)C(C#N)=Cc1cc(O)ccc1[N+](=O)[O-])c1ccccc1 (centres unmarked) [9-D15, 2-cyano-3-(5-hydroxy-2-nitrophenyl)-N-(1-phenylethyl)prop-2-enamide]",101%
4,"N#CC(=Cc1csc2ccccc12)C(=O)NCc1ccco1 [9-D16, 3-(1-benzothiophen-3-yl)-2-cyano-N-[(furan-2-yl)methyl]prop-2-enamide]",108%
5,"Cc1cccc(NC(=O)C(C#N)=Cc2cc(C)n(C3CC3)c2C)c1 [9-D17, 2-cyano-3-(1-cyclopropyl-2,5-dimethyl-1H-pyrrol-3-yl)-N-(3-methylphenyl)prop-2-enamide]",94.3%
6,"Cn1cc(C=C(C#N)C(=O)N2CCCC2)c(-c2cc3ccccc3o2)n1 [9-D18, 3-[3-(1-benzofuran-2-yl)-1-methyl-1H-pyrazol-4-yl]-2-(pyrrolidine-1-carbonyl)prop-2-enenitrile]",106%
7,"CC(=O)Nc1ccc(C=C(C#N)C(=O)Nc2cccc(C)c2C)cc1 [9-D19, 2-cyano-N-(2,3-dimethylphenyl)-3-(4-acetamidophenyl)prop-2-enamide]",107%
8,"N#CC(=Cc1ccco1)C(=O)Nc1cc2c(cc1Cl)NC(=O)CO2 [9-D20, N-(6-chloro-3-oxo-3,4-dihydro-2H-1,4-benzoxazin-7-yl)-2-cyano-3-(furan-2-yl)prop-2-enamide]",87%
9,"C=CCNC(=O)C(C#N)=Cc1ccc(C)c(C)c1 [9-D21, 2-cyano-3-(3,4-dimethylphenyl)-N-(prop-2-en-1-yl)prop-2-enamide]",110%
10,"COCCNC(=O)C(C#N)=Cc1ccc(O)cc1 [9-D22, 2-cyano-3-(4-hydroxyphenyl)-N-(2-methoxyethyl)prop-2-enamide]",110%
11,"N#CC(=Cc1ccc2[nH]c(=O)[nH]c2c1)C(=O)NC1CCCC1 [9-E03, 2-cyano-N-cyclopentyl-3-(2-oxo-2,3-dihydro-1H-1,3-benzodiazol-5-yl)prop-2-enamide]",121%
12,"Cc1ccc(NC(=O)C(C#N)=Cc2ccc(C(C)(C)C)cc2)cc1C [9-E04, 3-(4-tert-butylphenyl)-2-cyano-N-(3,4-dimethylphenyl)prop-2-enamide]",104%
13,"CC(C#N)Oc1ccc(C=C(C#N)C(=O)Nc2ccccc2Cl)cc1 (centres unmarked) [9-E05, N-(2-chlorophenyl)-2-cyano-3-[4-(1-cyanoethoxy)phenyl]prop-2-enamide]",111%
14,"Cc1ccccc1C(C)NC(=O)C(C#N)=Cc1ccco1 (centres unmarked) [9-E06, 2-cyano-3-(furan-2-yl)-N-[1-(2-methylphenyl)ethyl]prop-2-enamide]",107%
15,"Cc1nn(-c2ccccc2)c(C)c1C=C(C#N)C(=O)Nc1nccs1 [9-E07, 2-cyano-3-(3,5-dimethyl-1-phenyl-1H-pyrazol-4-yl)-N-(1,3-thiazol-2-yl)prop-2-enamide]",119%
16,"COc1ccc2cc(C=C(C#N)C(=O)Nc3nccs3)ccc2c1 [9-E08, 2-cyano-3-(6-methoxynaphthalen-2-yl)-N-(1,3-thiazol-2-yl)prop-2-enamide]",63.3%
17,"CCCCNC(=O)C(C#N)=Cc1cc(C)c(O)c(C)c1 [9-E09, N-butyl-2-cyano-3-(4-hydroxy-3,5-dimethylphenyl)prop-2-enamide]",111%
18,"COc1ccc(C=C(C#N)C(=O)Nc2cccc3ccccc23)cc1 [9-E10, 2-cyano-3-(4-methoxyphenyl)-N-(naphthalen-1-yl)prop-2-enamide]",105%

row,SMILES,"viability at 48 h, 25 µM"
1,"CC(C)NC(=O)C(C#N)=Cc1ccc2c(c1)OCCO2 [9-E11, 2-cyano-3-(2,3-dihydro-1,4-benzodioxin-6-yl)-N-(propan-2-yl)prop-2-enamide]",118%
2,"Cc1cccc(NC(=O)C(C#N)=Cc2ccc(F)cc2)c1 [9-E12, 2-cyano-3-(4-fluorophenyl)-N-(3-methylphenyl)prop-2-enamide]",90.9%
3,"CC(C)NC(=O)C(C#N)=Cc1c(Cl)cccc1Cl [9-E13, 2-cyano-3-(2,6-dichlorophenyl)-N-(propan-2-yl)prop-2-enamide]",87%
4,"N#CC(=Cc1ccc(N)cc1)C(=O)N1CCCC1 [9-E14, 3-(4-aminophenyl)-2-(pyrrolidine-1-carbonyl)prop-2-enenitrile]",101%
5,"N#CC(=Cc1ccc(Cl)c([N+](=O)[O-])c1)C(=O)NCc1ccco1 [9-E15, 3-(4-chloro-3-nitrophenyl)-2-cyano-N-[(furan-2-yl)methyl]prop-2-enamide]",6.64%
6,"N#CC(=Cc1ccco1)C(=O)Nc1ccc2nc(S)oc2c1 [9-E16, 2-cyano-3-(furan-2-yl)-N-(2-sulfanyl-1,3-benzoxazol-6-yl)prop-2-enamide]",110%
7,"CCCCNC(=O)C(C#N)=Cc1cccs1 [9-E17, N-butyl-2-cyano-3-(thiophen-2-yl)prop-2-enamide]",117%
8,"COc1cc(Cl)ccc1CNC(=O)C(C#N)=Cc1ccco1 [9-E18, N-[(4-chloro-2-methoxyphenyl)methyl]-2-cyano-3-(furan-2-yl)prop-2-enamide]",109%
9,"Cc1ccc(C=C(C#N)C(=O)Nc2cc(Cl)ccc2Cl)s1 [9-E19, 2-cyano-N-(2,5-dichlorophenyl)-3-(5-methylthiophen-2-yl)prop-2-enamide]",107%
10,"N#CC(=Cc1cnc2ccc(C#N)cn12)C(=O)Nc1ccc(F)cc1 [9-E20, 2-cyano-3-{6-cyanoimidazo[1,2-a]pyridin-3-yl}-N-(4-fluorophenyl)prop-2-enamide]",99.4%
11,"Cc1ccccc1NC(=O)C(C#N)=Cc1ccc(N2CCCCC2)cc1 [9-E21, 2-cyano-N-(2-methylphenyl)-3-[4-(piperidin-1-yl)phenyl]prop-2-enamide]",91.8%
12,"N#CC(=Cc1ccc(Cl)cc1)C(=O)Nc1ccc2c(c1)OCCO2 [9-E22, 3-(4-chlorophenyl)-2-cyano-N-(2,3-dihydro-1,4-benzodioxin-6-yl)prop-2-enamide]",106%
13,"N#CC(=Cc1ccc(O)cc1)C(=O)Nc1cc(Cl)ccc1Cl [9-F03, 2-cyano-N-(2,5-dichlorophenyl)-3-(4-hydroxyphenyl)prop-2-enamide]",87%
14,"COCC(C)NC(=O)C(C#N)=Cc1cc2cc(F)ccc2o1 (centres unmarked) [9-F04, 2-cyano-3-(5-fluoro-1-benzofuran-2-yl)-N-(1-methoxypropan-2-yl)prop-2-enamide]",99.8%
15,"C=CCNC(=O)C(C#N)=Cc1ccc(C)s1 [9-F05, 2-cyano-3-(5-methylthiophen-2-yl)-N-(prop-2-en-1-yl)prop-2-enamide]",108%
16,"N#CC(=Cc1cccc(Oc2ccccc2)c1)C(=O)N1CCCC1 [9-F06, 3-(3-phenoxyphenyl)-2-(pyrrolidine-1-carbonyl)prop-2-enenitrile]",46.3%
17,"CCn1nc(C)c(C=C(C#N)C(=O)Nc2ccccc2Cl)c1C [9-F07, N-(2-chlorophenyl)-2-cyano-3-(1-ethyl-3,5-dimethyl-1H-pyrazol-4-yl)prop-2-enamide]",110%

# From PMC11995724, “Antibiotic target discovery by integrated phenotypic and activity-based profiling of electrophilic fragments” (Cell chemical biology, 2025)
